Where only a bound is given, the exact number is not on record here.

The values below come from ChEMBL document CHEMBL3886568, “Pyridine derivatives as agonists of the CB2 receptor” (2016).

For this test, the target named is Cannabinoid receptor 1 (Homo sapiens, UniProt P21554). The test can be described thus: cAMP Assay: CHO cells expressing human CB1 or CB2 receptors are seeded 17-24 hours prior to the experiment 50.000 cells per well in a black 96 well plate with flat clear bottom (Corning Costar #3904) in DMEM (Invitrogen No. 31331), 1×HT supplement, with 10% fetal calf serum and incubated at 5% CO2 and 37° C. in a humidified incubator. The growth medium was exchanged with Krebs Ringer Bicarbonate buffer with 1 mM IBMX and incubated at 30° C. for 30 min Compounds were added to a final assay volume of 100 ul and incubated for 30 min at 30° C. Using the cAMP-Nano-TRF detection kit the assay (Roche Diagnostics) was stopped by the addition of 50 ul lysis reagent (Tris, NaCl, 1.5% Triton X100, 2.5% NP40, 10% NaN3) and 50 ul detection solutions (20 uM mAb Alexa700-cAMP 1:1, and 48 uM Ruthenium-2-AHA-cAMP) and shaken for 2 h at room temperature. The time-resolved energy transfer is measured by a TRF reader (Evotec Technologies GmbH), equipped with a ND:YAG laser as excitation source. The plate is measured twice with the excitation at 355 nm and at the emission with a delay of 100 ns and a gate of 100 ns, total exposure time 10 s at 730 (bandwidth 30 nm) or 645 nm (bandwidth 75 nm), respectively. The FRET signal is calculated. It is filed as functional, cell-based.
Sequence of Cannabinoid receptor 1 (P21554 whole entry): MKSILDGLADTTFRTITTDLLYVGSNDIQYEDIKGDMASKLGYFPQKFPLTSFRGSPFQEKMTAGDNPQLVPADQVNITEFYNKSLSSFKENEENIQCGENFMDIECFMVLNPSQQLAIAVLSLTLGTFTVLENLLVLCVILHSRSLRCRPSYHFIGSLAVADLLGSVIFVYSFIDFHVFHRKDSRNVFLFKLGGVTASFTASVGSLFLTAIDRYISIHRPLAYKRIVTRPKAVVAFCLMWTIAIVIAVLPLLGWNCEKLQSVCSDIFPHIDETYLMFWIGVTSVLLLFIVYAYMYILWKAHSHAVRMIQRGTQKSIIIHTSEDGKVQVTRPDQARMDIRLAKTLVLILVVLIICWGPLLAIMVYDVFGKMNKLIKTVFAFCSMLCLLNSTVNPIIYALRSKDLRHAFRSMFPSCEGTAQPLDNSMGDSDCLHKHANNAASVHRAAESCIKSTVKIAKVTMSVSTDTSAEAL

For `O=C(N[C@@H](CC1CC1)C(=O)NC1CCC(O)C1)c1ccc(C2CC2)c(OCC2CC2)n1` (stereo partly specified), the concentration giving a half-maximal response (EC50) was over 10 µM.
